The record followed here is a melting point compilation (Tetko et al.; mined from patent text by program, amines drawn as free bases though some values may be those of a salt).

For orientation: melting point means the temperature of the solid-liquid transition.

Some results are limits rather than exact numbers.

In turn, `Cc1ccc(CO)cc1NC(=O)c1cccc([N+](=O)[O-])c1` gave a melting point of 198 to 200 °C. Then `NS(=O)(=O)c1ccc(-c2[nH]c3ccc(Br)cc3c2-c2ccccc2)cc1`, with 310 to 312 °C; and `O=C(OCc1ccccc1)N1CCC2(CC1)CC(=O)N(O)C2=O`, with 131 to 132 °C; and `Cc1ccc(S(=O)(=O)OC2CCC3(CC2)OCCO3)cc1`, with 65 to 67.5 °C. Next, `CCOC(=O)CCC(CC(=O)c1ccc(N)cc1)C(=O)OCC` (racemic): 58 to 61 °C; `COc1ccc(CNc2nc(N3CCC(C(=O)O)CC3)nc3sc(Cl)cc23)cc1Cl`: greater than 250 °C; `O=c1[nH]c2cc(-c3ccncc3)c(C(F)(F)F)nc2[nH]1`: greater than 300 °C. In turn, `O=C(O)c1cccc2c1CCc1ccc(O)cc1S2` registered a melting point of 219 to 221 °C.

As for `COc1ccc(NC(=O)CN2CCC(Cc3ccc(F)cc3)CC2)cc1`, the melting point is 121 to 124 °C. Then `CCCC12CCC3C4CCC(=O)C=C4CCC3C1CCC2OC(=O)CCc1ccccc1` (centres undefined), with 104 to 108 °C; and `CCOC(=O)c1cnc(Nc2ccc(OCC)cc2)[nH]c1=O`, with 263 to 265 °C. In the case of `O=C(O)c1cc(F)c(F)c(C(F)(F)F)c1F`, the melting point was in the range of 87 to 90 °C. Next, `O=C1c2ccccc2C(=O)c2c1c(Oc1ccc(CCCO)cc1)c1ccc(Sc3ccccc3)cc1c2Oc1ccc(CCCO)cc1`: 140 to 148 °C. Then `O=[N+]([O-])c1cc(C(c2ccc(O)c([N+](=O)[O-])c2)(C(F)(F)F)C(F)(F)F)ccc1O`, with 119 to 122 °C. The compound `COc1cc(C=O)cc(C#N)c1OC` returned a melting point of 109 to 112 °C.

Regarding `CC(C)c1nc2cc(NC(=O)c3c(C(=O)O)cnn3C)ccn2n1`, the melting point is greater than 250 °C. Next, `CCCc1c(OCCCCCC(=O)c2ccc(O)c(O)c2)ccc(C(=O)O)c1O`: 188 to 191 °C. Then `O=S(=O)(c1cccnc1)N1CCC(Nc2nc(Nc3cccc(C(F)(F)F)c3)nc(OCC(F)(F)F)n2)CC1`, with 222 to 224 °C.

For `O=[N+]([O-])c1cccnc1Nc1ccc2c(c1)COC2`, the melting point was 146 to 147 °C. Then `O=C1CNC=Nc2[nH]cnc21`, with 260 °C; and `Cc1c(COc2ccc(-c3ccc(S(=O)(=O)NC(C(=O)O)C(C)C)cc3)cc2)oc2ccc(Br)c(OC(C)C)c12` (centres undefined), with 137 to 140 °C. Then `CC(=O)c1sc2sc(-c3ccncc3)c(C)c2c1C`, with 171 to 173 °C. Then `CCOC(=O)c1c(CN(CC)CC)nc2sc3c(c2c1-c1ccc(OC)c(OC)c1)CCN(C(=O)Nc1ccccc1)C3`, with 154 to 155 °C. In turn, `CSC1Oc2cccc3cccc(c23)C1=O` (centres undefined) had a melting point of 89 to 91 °C. Then `O=C(O)C=Cc1ccc(/C=C/c2ccncc2)cc1`, with greater than 300 °C; and `COC(C)(CCCCC(C)(C)O)c1cccc(C=Cc2cc(O)cc(O)c2)c1` (centres undefined), with 65 to 75 °C; and `CCOC(=O)Cc1ccc(-c2cn3ccsc3n2)cc1`, with 117 to 119 °C. Then `N#Cc1ccc(N2C(=O)NC3(CCS(=O)(=O)CC3)C2=O)cc1C(F)(F)F`, with 257 to 258 °C; and `C=Cc1ccc(S(N)(=O)=O)cc1`, with 130 to 132 °C; and `O=S1(=O)NCCNc2ccc(Oc3ccccc3)cc21`, with 146 to 149 °C. The compound `Nc1cc(=O)n(Cc2ccc(Cl)c(Cl)c2)[nH]1` gave a melting point of 159 °C. Next, `CCN(CC)CCNC(=O)c1cccc2cc3c(I)cccc3nc12`: 78 to 80 °C; `Cc1cc(Cn2cncn2)cc2c1Cc1c(-c3ccsc3)n[nH]c1-2`: 255 to 257 °C; `COc1ccc(CNC(=O)c2cn3c(=O)n(Cc4ccc(C(=O)O)cc4)c(=O)c(C)c3s2)cc1`: greater than 210 °C.

In turn, `O=C1OC(CCOc2ccc3oc4ccccc4c3c2)C(O)=C1O` (centres undefined) displayed a melting point of 191 to 192 °C.

Regarding `O=C1CCC2=C1C(c1ccc3nonc3c1)C1=C(CCC1=O)N2`, the melting point is 272 to 273 °C. Then `COc1cc(C)nc(-n2cccn2)n1`, with 52.5 to 53 °C. Next, `COc1ccc(CNc2c(C)c(C)c3c(c2C)C(c2ccc(C(C)C)cc2)C(C)(C)O3)cc1` (centres undefined): 95 to 96 °C; `CN(C)c1ccc(NC(=O)[C@@H](Cc2ccccc2)NC(=O)CCC(=O)O)cc1`: 197 to 198 °C; `CCOC(=O)c1ccc(-c2cccc(O)c2)cc1`: 76 °C.

The compound `CCC1(O)CC(=O)OCc2c1cc1n(c2=O)Cc2cc3ccc(F)cc3nc2-1` (centres undefined) yielded a melting point greater than 250 °C. In turn, `CN(C(=O)CN(O)C(N)=O)c1cccc(OCc2ccccc2)c1` displayed a melting point of 162 to 163 °C. Next, `COc1ccc(C(=O)Nc2cc([N+](=O)[O-])ccc2C)cc1OC`: greater than 300 °C. Then `CN(CCN(O)C(N)=O)Cc1cccc(Oc2cc(Cl)cc(Cl)c2)c1`, with 111 to 113 °C; and `CCOC(=O)Cc1ccc(NC(=O)C(CC(C)C)NS(=O)(=O)c2ccc(Cl)cc2)cc1` (racemic), with 117 to 120 °C; and `CC(C)c1cccc(C(C)C)c1NC(=O)N(Cc1ccc(N(C)C)cc1)c1ccc(C(C)(C)C)cc1`, with 154 to 155 °C. Then `CC(=O)c1cc(O)c(O)c([N+](=O)[O-])c1`, with 159 to 160 °C. Compound `O=C(O)CCNc1cccc(Br)n1` yielded a melting point of 108 to 109 °C. Then `CCCCC(=O)NC(C(=O)OCC)=C(N)Sc1ccccc1`, with 115 °C; and `CCN1CCc2ccc(Nc3ncc(Cl)c(Nc4cc(Cl)ccc4C(=O)NC)n3)cc2CC1`, with 223 °C; and `CC(C)(C(=O)O)n1nc2ccc(NCCCN3CCC(OC(c4ccccc4)c4ccccc4)CC3)nn2c1=O`, with 181 to 185 °C. Take `COC(=O)c1cc(CBr)ccc1[N+](=O)[O-]`: the melting point lay in the range of 55 to 56 °C. Next, `CCOC(=O)Nc1cc([N+](=O)[O-])cc(CC)c1C(=O)O`: 121 to 123 °C. `CCc1nc(C)cn1-c1cc2c(cc1C(F)(F)F)[nH]c(=O)c1nnc(CP(=O)(O)O)n12`: the melting point is greater than 300 °C. Next, `COc1cc2c(cc1OC)C(N1CCN(c3ccc4c(c3)CCC(=O)N4)CC1)=NCC2`: 70 to 75 °C; `COc1cccc(OC)c1C(=O)Nc1nnc(-c2ccc(Cl)cc2)s1`: 238 to 240 °C; `COC(=O)Cc1ccc(C(F)(F)F)cc1NC(C)=O`: 92 to 94 °C. In the case of `C=C1CC(COc2ccc3c(C)c(Cl)c(=O)oc3c2)(c2ccccc2)OC1=O` (centres undefined), the melting point was 149 to 150 °C.

In turn, `CC1(c2ccccc2)OC(C=Cc2ccccn2)=CC1=O` (centres undefined) registered a melting point of 74.5 to 76 °C. Next, `CC(=O)c1cccnc1CN1C(=O)C(NC(=O)Nc2cccc(C)c2)N=C(c2ccccc2F)c2ccccc21` (racemic): 218 to 222 °C; `COc1cc2c(cc1OC)NC1=C(C2)C(=O)N(C)CN1`: 225 to 230 °C; `CC1(C)C(c2cccs2)=NN=C1c1cccs1`: 153 to 156 °C. `CC(C)NS(=O)(=O)c1ccc(N)c(C(=O)N2CCN(C)CC2)c1` registered a melting point of 118 to 122 °C.

For `COC(=O)C(O)C(NCc1ccccc1)c1ccc(Cl)cc1` (centres undefined), the melting point fell in the range of 106 to 108 °C. Next, `O=C1C2C(C(=O)N1c1ccccc1S)C1(Cl)C(Cl)=C(Cl)C2(Cl)C1(Cl)Cl` (centres undefined): 195 to 198 °C.

The compound `CC(C)(C)OC(=O)N1C[C@H](C#N)C[C@H]1C(=O)OCc1ccccc1` yielded a melting point of 97 to 99 °C.

Consider `O=[N+]([O-])c1cccc(F)c1CCO`, for which the melting point lay in the range of 42 to 44 °C. Compound `CC1=C(C)C(=O)C(NCc2ccccc2)=CC1=O` registered a melting point of 101 to 102 °C. Next, `CCCCCCCCCCCCCCCCSCC(CNS(=O)(=O)CCCCl)NC(C)=O` (centres undefined): 86 to 88 °C; `N#CC(C=CC=O)=C(c1ccc(F)cc1)c1ccc(F)cc1`: 155 to 156 °C; `O=[N+]([O-])c1ccc(SCCn2cnnc2)cc1`: 162 to 165 °C. Next, `COc1cc(C)nc(NC(=O)NS(=O)(=O)c2c(Br)csc2C(=O)c2cccs2)n1`: 106 °C.

Consider `Nc1ccc2c(c1)C(=O)C1(CCOC1=O)S2` (centres undefined), for which the melting point fell in the range of 187 to 190 °C.

In the case of `CC(C)(C)C(=O)c1c[nH]c2ncc(-c3cccc(NC4=NCCN4)c3)nc12`, the melting point fell in the range of 228 to 230 °C. In turn, `Cc1nc(C)c2c(n1)N(Cc1ccc(-c3ccccc3-c3nnn[nH]3)cc1)C(=O)C2` registered a melting point of 228 to 229 °C. The compound `O=[N+]([O-])C=Cc1c[nH]c2ccc(-c3ccc4[nH]cnc4c3)cc12` displayed a melting point greater than 280 °C.

As for `COC(=O)c1ccc(Cc2cn(C)c3ccc(C(=O)OC)cc23)c(OC)c1`, the melting point was in the range of 137 to 140 °C. The compound `CCc1c(N)nc(-c2ccc(Cl)c(OC)c2F)nc1C(=O)OC` gave a melting point of 144 to 146 °C. In the case of `CC(C)Oc1ccc(CCCCOc2cc(CCC(=O)O)n(C)n2)c(Oc2ncc(C(F)(F)F)cc2Cl)c1`, the melting point lay in the range of 156 to 157 °C. `CCc1cccc2c3c([nH]c12)C(CC)(CC)OCC3` showed a melting point of 133 to 134 °C. Then `O=C(O)c1cc(Cl)n2cnnc2c1`, with 249 to 251 °C; and `Cc1cc(F)ccc1-c1nc(NCCNC(=O)Nc2ccccc2)nc2c1ccc(=O)n2-c1c(F)cccc1F`, with 142 to 148 °C.

In turn, `Cn1c(Cl)c(C=O)c2cccc(Cl)c21` registered a melting point of 185 to 187 °C. Next, `CNCC(O)c1cccn1C` (centres undefined): 64 to 66 °C; `CC(C)(C)c1ccc(CCC=O)cc1NC(=O)CC1c2ccccc2Oc2ccccc21`: 176 to 177 °C.

For `Cc1c(CCc2ccc3[nH]c(N)nc3c2)ncn1C(c1ccccc1)(c1ccccc1)c1ccccc1`, the melting point lay within 161 to 164 °C.

As to `CSc1cc(C#N)c(Oc2ccc(Cl)c(Cl)c2)cn1`, the melting point fell in the range of 96 to 97 °C.

In the case of `COc1ccc(-c2nc(C(=O)N3CCOCC3)sc2-c2ccc(OC)cc2)cc1`, the melting point was in the range of 118 to 122 °C. Then `CCCCc1ccc2c(n1)C(C(N)=S)CCC2` (centres undefined), with 54 to 56 °C.
